For orientation: Ki means a measure of affinity in units of concentration, obtained from inhibition or displacement. A higher Ki goes with lower affinity.

Drawing on patent publication US9321764B2, “Dihydro-pyrrolopyridinone inhibitors” (AbbVie Inc., priority 2013, dated 2016), this text covers Ki for 19 compounds.

The target of one assay is T1, BRD4 (BDI_K57-E168) (Homo sapiens, UniProt O60885).
T1 construct: BD1: amino acids K57-E168; made in house
The assay is described as follows: TR-FRET bromodomain binding assay, first bromodomain of BRD4. The following applies: His-tagged BD1, 100 nM Alexa647 probe; TR-FRET protocol A-E given per row. As for the experimental part:
(§1) A time-resolved fluorescence resonance energy transfer (TR-FRET) assay was used to determine the affinities of compounds of the Examples listed in Table 1 for each bromodomain of BRD4. His-tagged first (BD1: amino acids K57-E168) and second (BD2: amino acids E352-E168) bromodomains of BRD4 were expressed and purified. An Alexa647-labeled BET-inhibitor was used as the fluorescent probe in the assay.
(§2) Compound dilution series were prepared in DMSO via an approximately 3-fold serial dilution from one of the following:
Assay method A: 250 μM-4.2 nM
Assay method B: 0.47 mM to 7.8 nM
Assay method C: 500 μM-8.5 nM
(§3) Assay method D: 2.5 mM-800 nM
Assay method E: 0.047 mM to 0.78 nM or 5-fold serial dilution from Assay method D
For Assay methods A, C, and D: Compounds were then diluted 6:100 in assay buffer (20 mM Sodium Phosphate, pH 6.0, 50 mM NaCl, 1 mM Ethylenediaminetetraacetic acid, 0.01% Triton X-100, 1 mM DL-Dithiothreitol) to yield 3× working solutions. Six microliters (μL) of the working solution was then transferred to white, low-volume assay plates (Costar #3673). A 1.5× assay mixture containing His-tagged bromodomain, Europium-conjugated anti-His antibody (Invitrogen PV5596) and the Alexa-647-conjugated probe molecule was also prepared. Twelve μL of this solution were added to the assay plate to reach a final volume of 18 μL.
For Assay methods B and E: Compound dilutions were added directly into white, low-volume assay plates (Perkin Elmer Proxiplate 384 Plus #6008280) using a Labcyte Echo in conjunction with Labcyte Access and Thermo Multidrop CombinL robotics. Compounds were then suspended in eight microliters (μL) of assay buffer (20 mM Sodium Phosphate, pH 6.0, 50 mM NaCl, 1 mM Ethylenediaminetetraacetic acid disodium salt dihydrate, 0.01% Triton X-100, 1 mM DL-Dithiothreitol) containing His-tagged bromodomain, Europium-conjugated anti-His antibody (Invitrogen PV5596) and Alexa-647-conjugated probe.
The final concentration of 1× assay mixture for assay methods A, B, C, D, and E contains 2% DMSO, 8 nM His-tagged bromodomain, 1 nM Europium-conjugated anti-His-tag antibody and 100 nM or 30 nM probe (for BDI or BDII, respectively) and compound concentration in the range of: 5 μM-85 pM for method A, 9.19 μM 150 pM for method B, 10 μM-169 pM for method C, 50 μM-16 nM for method D, and 0.92 μM-15 pM for method E.
After a one-hour equilibration at room temperature, TR-FRET ratios were determined using an Envision multilabel plate reader (Ex 340, Em 495/520).
TR-FRET data were normalized to the means of 24 no-compound controls (“high”) and 8 controls containing 1 μM un-labeled probe (“low”). Percent inhibition was plotted as a function of compound concentration and the data were fit with the 4 parameter logistic equation to obtain IC50s Inhibition constants (Ki) were calculated from the IC50s, probe Kd and probe concentration. Typical Z′ values were between 0.65 and 0.75. The minimum significant ratio was determined to evaluate assay reproducibility (Eastwood et al., (2006) J Biomol Screen, 11: 253-261). The MSR was determined to be 2.03 for BDI and 1.93 for BDII, and a moving MSR (last six run MSR overtime) for both BDI and BDII was typically <3.

Another assay has as its target T2, BRD4 (BDII_E352-M457) (Homo sapiens, UniProt O60885).
T2 construct: proliferation; Protocol; made in house
The assay is described as follows: TR-FRET bromodomain binding assay, second bromodomain of BRD4. The settings on record: His-tagged BD2, 30 nM Alexa647 probe; TR-FRET protocol A-E given per row. The procedure: as §1, §2, §3
For Assay methods A, C, and D: Compounds were then diluted 6:100 in assay buffer (20 mM Sodium Phosphate, pH 6.0, 50 mM NaCl, 1 mM Ethylenediaminetetraacetic acid, 0.01% Triton X-100, 1 mM DL-Dithiothreitol) to yield 3× working solutions. […] Twelve μL of this solution were added to the assay plate to reach a final volume of 18 μL.
TR-FRET data were normalized to the means of 24 no-compound controls (“high”) and 8 controls containing 1 μM un-labeled probe (“low”). Percent inhibition was plotted as a function of compound concentration and the data were fit with the 4 parameter logistic equation to obtain IC50s Inhibition constants (Ki) were calculated from the IC50s, probe Kd and probe concentration. Typical Z′ values were between 0.65 and 0.75.
(In general: In TR-FRET formats the signal depends on donor and acceptor labels being close together.)

For `Cn1cc(-c2cc(NC(=O)Cc3ccc(Cl)cc3F)ccc2Oc2ccc(F)cc2F)c2cc[nH]c(=O)c21` [Example 160, 2-(4-chloro-2-fluorophenyl)-N-[4-(2,4-difluorophenoxy)-3-(1-methyl-7-oxo-6,7-dihydro-1H-pyrrolo[2,3-c]pyridin-3-yl)phenyl]acetamide], the Ki on BRD4 (BDI_K57-E168) is 101 nM; on BRD4 (BDII_E352-M457) it was greater than 408 nM.

As to `COc1ccc(S(C)(=O)=O)cc1-c1cn(C)c2c(=O)[nH]ccc12` [Example 21, 3-[2-methoxy-5-(methylsulfonyl)phenyl]-1-methyl-1,6-dihydro-7H-pyrrolo[2,3-c]pyridin-7-one], the Ki stood at 438 nM at BRD4 (BDI_K57-E168) and 721 nM at BRD4 (BDII_E352-M457).

For `CCS(=O)(=O)c1ccc(Oc2cnc(C)cc2C)c(-c2cn(C)c3c(=O)[nH]ccc23)c1` [Example 75, 3-{2[(4,6-dimethylpyridin-3-yl)oxy]-5-(ethylsulfonyl)phenyl}-1-methyl-1,6-dihydro-7H-pyrrolo[2,3-c]pyridin-7-one], the Ki came to 131 nM on BRD4 (BDI_K57-E168) and 42 nM on BRD4 (BDII_E352-M457).

Regarding `Cn1cc(-c2ccccc2NCC2CC2)c2cc[nH]c(=O)c21` [Example 142, 3-{2-[(cyclopropylmethyl)amino]phenyl}-1-methyl-1,6-dihydro-7H-pyrrolo[2,3-c]pyridin-7-one], the Ki came to 870 nM on BRD4 (BDI_K57-E168) and 2310 nM on BRD4 (BDII_E352-M457).

For `Cn1cc(-c2cc(CN)ccc2Oc2ccc(F)cc2F)c2cc[nH]c(=O)c21` [Example 136, 3-[5-(aminomethyl)-2-(2,4-difluorophenoxy)phenyl]-1-methyl-1,6-dihydro-7H-pyrrolo[2,3-c]pyridin-7-one], the Ki on BRD4 (BDI_K57-E168) came out at 1090 nM; on BRD4 (BDII_E352-M457), 1320 nM.

Regarding `Cn1cc(-c2cc(CS(C)(=O)=O)ccc2Oc2ccc(F)cc2F)c2cc(-c3cc(CS(C)(=O)=O)ccc3Oc3ccc(F)cc3F)[nH]c(=O)c21` [Example 93, 3,5-bis{2-(2,4-difluorophenoxy)-5-[(methylsulfonyl)methyl]phenyl}-1-methyl-1,6-dihydro-7H-pyrrolo[2,3-c]pyridin-7-one], the Ki amounted to 484 nM at BRD4 (BDI_K57-E168) and 619 nM at BRD4 (BDII_E352-M457).

For `Cn1cc(-c2cc(NC(=O)Cc3ccc4c(c3)CCCO4)ccc2Oc2ccc(F)cc2F)c2cc[nH]c(=O)c21` [Example 162, N-[4-(2,4-difluorophenoxy)-3-(1-methyl-7-oxo-6,7-dihydro-1H-pyrrolo[2,3-c]pyridin-3-yl)phenyl]-2-(3,4-dihydro-2H-chromen-6-yl)acetamide], the Ki is 146 nM at BRD4 (BDI_K57-E168) and 183 nM at BRD4 (BDII_E352-M457).

As to `Cn1cc(-c2cc(NCc3cccc(C#N)c3)ccc2Oc2ccc(F)cc2F)c2cc[nH]c(=O)c21` [Example 172, 3-({[4-(2,4-difluorophenoxy)-3-(1-methyl-7-oxo-6,7-dihydro-1H-pyrrolo[2,3-c]pyridin-3-yl)phenyl]amino}methyl)benzonitrile], the figures for the Ki at BRD4 (BDI_K57-E168) and at BRD4 (BDII_E352-M457) were 71 nM and 226 nM, respectively.

Turning to `Cn1cc(-c2cc(NC(=O)CCCOc3ccccc3)ccc2Oc2ccc(F)cc2F)c2cc[nH]c(=O)c21` [Example 153, N-[4-(2,4-difluorophenoxy)-3-(1-methyl-7-oxo-6,7-dihydro-1H-pyrrolo[2,3-c]pyridin-3-yl)phenyl]-4-phenoxybutanamide], the Ki on BRD4 (BDI_K57-E168) was 321 nM; on BRD4 (BDII_E352-M457) it was 293 nM.

For `CCOC(=O)c1cc2c(-c3cn(C)c4c(=O)[nH]ccc34)c(OCC3CC3)ccc2[nH]1` [Example 99, ethyl 5-(cyclopropylmethoxy)-4-(1-methyl-7-oxo-6,7-dihydro-1H-pyrrolo[2,3-c]pyridin-3-yl)-1H-indole-2-carboxylate], the Ki on BRD4 (BDI_K57-E168) was greater than 2380 nM; at BRD4 (BDII_E352-M457), 2430 nM.

Take `Cc1ccc(CC(=O)Nc2ccc(Oc3ccc(F)cc3F)c(-c3cn(C)c4c(=O)[nH]ccc34)c2)cn1` [Example 161, N-[4-(2,4-difluorophenoxy)-3-(1-methyl-7-oxo-6,7-dihydro-1H-pyrrolo[2,3-c]pyridin-3-yl)phenyl]-2-(6-methylpyridin-3-yl)acetamide]: the inhibition constant Ki on BRD4 (BDI_K57-E168) is greater than 238 nM; on BRD4 (BDII_E352-M457) it was 79.1 nM.

`CC(C)CCNCc1ccc(Oc2ccc(F)cc2F)c(-c2cn(C)c3c(=O)[nH]ccc23)c1` [Example 117, 3-[2-(2,4-difluorophenoxy)-5-{[(3-methylbutyl)amino]methyl}phenyl]-1-methyl-1,6-dihydro-7H-pyrrolo[2,3-c]pyridin-7-one]: the inhibitory constant (Ki) is 776 nM at BRD4 (BDI_K57-E168) and 750 nM on BRD4 (BDII_E352-M457).

As to `Cn1cc(-c2cc(NC(=O)c3ccc(COc4ccccc4)cc3)ccc2Oc2ccc(F)cc2F)c2cc[nH]c(=O)c21` [Example 156, N-[4-(2,4-difluorophenoxy)-3-(1-methyl-7-oxo-6,7-dihydro-1H-pyrrolo[2,3-c]pyridin-3-yl)phenyl]-4-(phenoxymethyl)benzamide], the Ki at BRD4 (BDI_K57-E168) was 598 nM; on BRD4 (BDII_E352-M457), greater than 920 nM.

As to `Cn1cc(-c2cc(NCc3ccc(Oc4ccccc4)cc3)ccc2Oc2ccc(F)cc2F)c2cc[nH]c(=O)c21` [Example 173, 3-{2-(2,4-difluorophenoxy)-5[(4-phenoxybenzyl)amino]phenyl}-1-methyl-1,6-dihydro-7H-pyrrolo[2,3-c]pyridin-7-one], the Ki on BRD4 (BDI_K57-E168) is 214 nM; at BRD4 (BDII_E352-M457) it was 781 nM.

Regarding `Cc1cc(CC(=O)Nc2ccc(Oc3ccc(F)cc3F)c(-c3cn(C)c4c(=O)[nH]ccc34)c2)nn1C` [Example 164, N-[4-(2,4-difluorophenoxy)-3-(1-methyl-7-oxo-6,7-dihydro-1H-pyrrolo[2,3-c]pyridin-3-yl)phenyl]-2-(1,5-dimethyl-1H-pyrazol-3-yl)acetamide], the values for the Ki at BRD4 (BDI_K57-E168) and at BRD4 (BDII_E352-M457) were 11 nM and 73 nM, respectively.

In the case of `COC(=O)/C=C/N(c1ccc(F)cc1)c1ccc(CS(C)(=O)=O)cc1-c1cn(C)c2c(=O)[nH]ccc12` [Example 166, methyl (2E)-3-[(4-fluorophenyl) {2-(1-methyl-7-oxo-6,7-dihydro-1H-pyrrolo[2,3-c]pyridin-3-yl)-4-[(methylsulfonyl)methyl]phenyl}amino]prop-2-enoate], the Ki at BRD4 (BDI_K57-E168) worked out at 109 nM; on BRD4 (BDII_E352-M457) it was 47 nM.

`Cn1cc(-c2cc(S(C)(=O)=O)ccc2OCCC2CCCCC2)c2cc[nH]c(=O)c21` [Example 36, 3-[2-(2-cyclohexylethoxy)-5-(methylsulfonyl)phenyl]-1-methyl-1,6-dihydro-7H-pyrrolo[2,3-c]pyridin-7-one]: the Ki was found to be 146 nM at BRD4 (BDI_K57-E168) and 515 nM at BRD4 (BDII_E352-M457).

Consider `CCS(=O)(=O)Nc1ccc(Oc2ccc(F)cc2F)c(-c2cn(C)c3c(=O)[nH]c(CN4CCOCC4)cc23)c1` [Example 182, N-{4-(2,4-difluorophenoxy)-3-[1-methyl-5-(morpholin-4-ylmethyl)-7-oxo-6,7-dihydro-1H-pyrrolo[2,3-c]pyridin-3-yl]phenyl}ethanesulfonamide], for which the figures for the Ki on BRD4 (BDI_K57-E168) and at BRD4 (BDII_E352-M457) were 29.2 nM and 99.9 nM, respectively.

For `Cc1noc(C)c1-c1cc2c(-c3cc(CS(C)(=O)=O)ccc3Oc3ccc(F)cc3F)cn(C)c2c(=O)[nH]1` [Example 94, 3-{2-(2,4-difluorophenoxy)-5-[(methylsulfonyl)methyl]phenyl}-5-(3,5-dimethyl-1,2-oxazol-4-yl)-1-methyl-1,6-dihydro-7H-pyrrolo[2,3-c]pyridin-7-one], the Ki on BRD4 (BDI_K57-E168) is 168 nM; on BRD4 (BDII_E352-M457), 1870 nM.
